Source: patent publication US7939546B2, “Quinoline derivatives for modulating DNA methylation” (SuperGen, Inc., priority 2007, dated 2011)
Structures can show the parent of a compound that is named as a salt.

How the values were obtained:
[1] = biological target: DNMT1 (Homo sapiens, UniProt P26358); assay: Selective depletion of DNMT1 by Western blot in treated HCT116 cells; assay type: cell-based; design: Protein extracts (equivalent to 100 μg) were isolated from HCT116 cells; endogenous in cells; host or cells: HCT116; conditions: for % DNMT1 protein level remaining at 5 µM: HCT-116, 5 μM; for % DNMT1 protein level remaining at 10 µM: HCT-116, 10 μM
Chain of DNMT1 (P26358 whole entry): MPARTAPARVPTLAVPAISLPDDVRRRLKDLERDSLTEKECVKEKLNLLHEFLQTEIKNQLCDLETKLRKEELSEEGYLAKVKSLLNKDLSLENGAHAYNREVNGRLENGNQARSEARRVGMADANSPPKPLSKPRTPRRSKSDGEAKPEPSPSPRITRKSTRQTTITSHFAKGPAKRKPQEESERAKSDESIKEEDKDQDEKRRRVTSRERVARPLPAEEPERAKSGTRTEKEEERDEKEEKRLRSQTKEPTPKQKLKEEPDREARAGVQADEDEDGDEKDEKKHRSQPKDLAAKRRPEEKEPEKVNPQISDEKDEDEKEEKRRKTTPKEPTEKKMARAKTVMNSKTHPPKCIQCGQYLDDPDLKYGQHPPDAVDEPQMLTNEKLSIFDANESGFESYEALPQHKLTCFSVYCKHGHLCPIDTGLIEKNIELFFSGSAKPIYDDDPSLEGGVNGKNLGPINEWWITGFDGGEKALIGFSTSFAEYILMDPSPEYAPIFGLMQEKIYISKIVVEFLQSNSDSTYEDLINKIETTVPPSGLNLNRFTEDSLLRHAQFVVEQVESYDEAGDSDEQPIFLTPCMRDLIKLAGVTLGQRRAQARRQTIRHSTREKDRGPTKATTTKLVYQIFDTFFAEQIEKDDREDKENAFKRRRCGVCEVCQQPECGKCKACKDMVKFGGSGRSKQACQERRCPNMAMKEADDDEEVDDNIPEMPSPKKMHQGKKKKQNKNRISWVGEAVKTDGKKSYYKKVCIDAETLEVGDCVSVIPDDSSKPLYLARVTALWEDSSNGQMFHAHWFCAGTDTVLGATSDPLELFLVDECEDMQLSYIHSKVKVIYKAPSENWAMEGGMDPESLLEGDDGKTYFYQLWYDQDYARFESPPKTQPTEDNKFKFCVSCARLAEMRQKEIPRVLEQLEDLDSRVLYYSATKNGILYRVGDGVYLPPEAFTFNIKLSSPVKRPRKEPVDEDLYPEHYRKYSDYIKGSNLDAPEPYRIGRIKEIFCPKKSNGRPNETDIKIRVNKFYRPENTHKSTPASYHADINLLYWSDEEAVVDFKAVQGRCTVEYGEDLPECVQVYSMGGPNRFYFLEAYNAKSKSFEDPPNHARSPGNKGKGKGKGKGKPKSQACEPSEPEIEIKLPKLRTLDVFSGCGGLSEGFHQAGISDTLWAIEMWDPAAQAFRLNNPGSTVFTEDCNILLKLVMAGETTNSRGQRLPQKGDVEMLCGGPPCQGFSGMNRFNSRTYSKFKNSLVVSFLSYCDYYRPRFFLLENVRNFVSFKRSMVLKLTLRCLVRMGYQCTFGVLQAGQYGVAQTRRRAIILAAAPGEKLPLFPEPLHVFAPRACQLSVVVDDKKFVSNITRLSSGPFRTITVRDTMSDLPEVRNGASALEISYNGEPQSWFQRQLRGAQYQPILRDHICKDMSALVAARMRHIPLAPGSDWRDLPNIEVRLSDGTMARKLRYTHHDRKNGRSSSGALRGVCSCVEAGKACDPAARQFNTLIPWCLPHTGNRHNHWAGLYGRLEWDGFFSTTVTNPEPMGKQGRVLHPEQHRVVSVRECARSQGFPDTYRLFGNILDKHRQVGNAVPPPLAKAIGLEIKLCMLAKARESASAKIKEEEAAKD
Excerpt: Biol. 2005, 11, 4727-41.]. For DNMT1, commercially available antibodies from Santa Cruz or New England Biolabs were used.

SMILES | % DNMT1 protein level remaining at 5 µM [1] | % DNMT1 protein level remaining at 10 µM [1] | melting point | also measured
Cc1cc(Nc2cccc(C(=O)Nc3ccc(Nc4ccnc5ccc(N(C)C)cc45)cc3)c2)nc(N)n1 [Cpd. EE, 4-[4-({3-[(2-amino-6-methyl-4-pyrimidinyl)amino]benzoyl}amino)anilino]-6-(dimethylamino)quinolinium chloride] | 30% | 10% | – | –
C[n+]1ccc(Nc2ccc(NC(=O)c3ccc(Nc4ccnc5ccc([N+](=O)[O-])cc45)cc3)cc2)cc1 (as salt: hydrochloride) [Cpd. G, 1-methyl-4-(4-(4-(6-nitroquinolin-4-ylamino)benzamido)phenylamino)pyridinium chloride hydrochloride] | – | – | 183 to 187 °C | –
Nc1cc(Nc2cccc(C(=O)Nc3ccc(Nc4ccnc5ccc([N+](=O)[O-])cc45)cc3)c2)nc(N)n1 [Cpd. RR1, 3-[(2,6-diamino-4-pyrimidinyl)amino]-N-{4-[(6-nitro-4-quinolinyl)amino]phenyl}benzamide dihydrochloride] | – | 100% | – | –
C[n+]1ccc(Nc2ccc(NC(=O)c3ccc(Nc4ccnc5ccc([N+](=O)[O-])cc45)cc3)cc2)cc1 [Cpd. G, 1-methyl-4-(4-(4-(6-nitroquinolin-4-ylamino)benzamido)phenylamino)pyridinium chloride hydrochloride] | 95% | 95% | – | % DNMT1 protein level remaining at 100 µM ([1]; HCT-116, 100 μM): 100%
Nc1cc(Nc2cccc(C(=O)Nc3ccc(Nc4ccnc5ccccc45)cc3)c2)nc(N)n1 [Cpd. FF2, 3-[(2,6-Diamino-4-pyrimidinyl)amino]-N-[4-(4-quinolinylamino)-phenyl]benzamide dihydrochloride] | 85% | 83% | – | –
Nc1cc(Nc2cccc(C(=O)Nc3ccc(Nc4ccnc5ccc([N+](=O)[O-])cc45)cc3)c2)nc(N)n1 (as salt: hydrochloride) [Cpd. RR1, 3-[(2,6-diamino-4-pyrimidinyl)amino]-N-{4-[(6-nitro-4-quinolinyl)amino]phenyl}benzamide dihydrochloride] | – | – | > 300 °C | –
C/C(=N\N=C(N)N)c1ccc(NC(=O)c2ccc(Nc3ccnc4ccc(N(C)C)cc34)cc2)cc1 (as salt: hydrochloride) [Cpd. NN, (E)-N-(4-(1-((Diaminomethylene)hydrazono)ethyl)phenyl)-4-(6-(dimethylamino)quinolin-4-ylamino)benzamide Dihydrochloride] | – | – | > 280 °C | –
C/C(=N\N=C(N)N)c1cccc(C(=O)Nc2ccc(Nc3ccnc4ccc(N(C)C)cc34)cc2)c1 [Cpd. QQ, 4-[4-({3-[(1E)-N-(diaminomethylene)ethanehydrazonoyl]-benzoyl}amino)anilino]-6-(dimethylamino)quinolinium chloride] | 60% | 50% | – | –
Cc1cc(Nc2cccc(C(=O)Nc3ccc(Nc4ccnc5ccc(N(C)C)cc45)cc3)c2)nc(N)n1 (as salt: chloride) [Cpd. EE, 4-[4-({3-[(2-amino-6-methyl-4-pyrimidinyl)amino]benzoyl}amino)anilino]-6-(dimethylamino)quinolinium chloride] | – | – | > 300 °C | –
Cc1cc(Nc2ccc(C(=O)Nc3ccc(Nc4ccnc5cc([N+](=O)[O-])ccc45)cc3)cc2)nc(N)n1 [Cpd. GG5, 4-[(2-Amino-6-methyl-4-pyrimidinyl)amino]-N-{4-[(7-nitro-4-quinolinyl)amino]phenyl}benzamide dihydrochloride] | – | 90% | – | –
Cc1cc(Nc2ccc(NC(=O)c3ccc(Nc4ccnc5c(F)c(F)c(F)cc45)cc3)cc2)nc(N)n1 [Cpd. KK, n-[4-(2-amino-6-methylpyrimidin-4-ylamino)phenyl]-4-(6,7,8-trifluoroquinolin-4-ylamino)benzamide dihydrochloride] | 82% | 20% | – | –
Cc1cc(Nc2ccc(C(=O)Nc3ccc(Nc4ccnc5ccc(N(C)C)cc45)cc3)cc2)nc(N)n1 (as salt: hydrochloride) [Cpd. HH, 4-[(2-amino-6-methyl-4-pyrimidinyl)amino]-N-(4-{[6-(dimethylamino)-4-quinolinyl]amino}phenyl)benzamide dihydrochloride] | – | – | > 300 °C | –
Cc1cc(Nc2cccc(C(=O)Nc3ccc(Nc4ccnc5ccc(N)cc45)cc3)c2)nc(N)n1 [RR3, 3-[(2-Amino-6-methyl-4-pyrimidinyl)amino]-N-{4-[(6-amino-4-quinolinyl)amino]phenyl}benzamide dihydrochloride] | – | 100% | – | –
C/C(=N\N=C(N)N)c1ccc(C(=O)Nc2ccc(Nc3ccnc4ccc(N(C)C)cc34)cc2)cc1 (as salt: hydrochloride) [Cpd. PP, 4-[(1E)-N-(diaminomethylene)ethanehydrazonoyl]-N-(4-{[6-(dimethylamino)-4-quinolinyl]amino}phenyl)benzamide dihydrochloride] | – | – | > 300 °C | –
Cc1cc(Nc2cccc(C(=O)Nc3ccc(Nc4ccnc5ccccc45)cc3)c2)nc(N)n1 [Cpd. FF1, 3-[(2-amino-6-methyl-4-pyrimidinyl)amino]-N-[4-(4-quinolinylamino)phenyl]benzamide dihydrochloride] | 15% | 5% | – | –
C[n+]1ccc(Nc2ccc(NC(=O)c3ccc(Nc4ccnc5ccccc45)cc3)cc2)cc1 (as salt: hydrochloride) [Cpd. B, 1-methyl-4-(4-(4-(quinolin-4-ylamino)benzamido)phenylamino)pyridinium chloride hydrochloride] | – | – | > 300 °C | –
Nc1cc(Nc2cccc(C(=O)Nc3ccc(Nc4ccnc5ccccc45)cc3)c2)nc(N)n1 (as salt: hydrochloride) [Cpd. FF2, 3-[(2,6-Diamino-4-pyrimidinyl)amino]-N-[4-(4-quinolinylamino)-phenyl]benzamide dihydrochloride] | – | – | > 300 °C | –
C[n+]1ccc(Nc2cccc(NC(=O)c3ccc(Nc4ccnc5ccc([N+](=O)[O-])cc45)cc3)c2)cc1 (as salt: chloride) [Cpd. F, 1-methyl-4-(3-{[4-(6-nitro-4-quinolinylamino)benzoyl]amino}anilino)pyridinium chloride] | – | – | 273 to 277 °C | –
Cc1cc(Nc2ccc(C(=O)Nc3ccc(Nc4ccnc5ccccc45)cc3)cc2)nc(N)n1 [Cpd. GG1, 4-[(2-amino-6-methyl-4-pyrimidinyl)amino]-N-[4-(4-quinolinylamino)phenyl]benzamide dihydrochloride] | 25% | 20% | – | –
Cc1cc(Nc2ccc(C(=O)Nc3ccc(Nc4ccnc5ccc(N)cc45)cc3)cc2)nc(N)n1 [Cpd. GG3, 4-[(2-amino-6-methyl-4-pyrimidinyl)amino]-N-{4-[(6-amino-4-quinolinyl)amino]phenyl}benzamide dihydrochloride] | 110% | 10% | – | –
C/C(=N\N=C(N)N)c1cccc(NC(=O)c2ccc(Nc3ccnc4ccccc34)cc2)c1 [Cpd. JJ2, (E)-N-[3-(1-{(Diaminomethylene)hydrazono}ethyl)phenyl]-4-(quinolin-4-ylamino)benzamide dihydrochloride] | 147% | 130% | – | –
Cc1cc(Nc2ccc(C(=O)Nc3ccc(Nc4ccnc5cc(N)ccc45)cc3)cc2)nc(N)n1 [Cpd. GG2, 4-[(2-Amino-6-methyl-4-pyrimidinyl)amino]-N-{4-[(7-amino-4-quinolinyl)amino]phenyl}benzamide dihydrochloride] | 85% | 52% | – | –
Cc1cc(Nc2ccc(C(=O)Nc3ccc(Nc4ccnc5ccc([N+](=O)[O-])cc45)cc3)cc2)nc(N)n1 [Cpd. GG4, 4-[(2-Amino-6-methyl-4-pyrimidinyl)amino]-N-{4-[(6-nitro-4-quinolinyl)amino]phenyl}benzamide dihydrochloride] | – | 90% | – | –
Cc1cc(Nc2cccc(C(=O)Nc3ccc(Nc4ccnc5ccc([N+](=O)[O-])cc45)cc3)c2)nc(N)n1 [RR2, 3-[(2-amino-6-methyl-4-pyrimidinyl)amino]-N-{4-[(6-nitro-4-quinolinyl)amino]phenyl}benzamide dihydrochloride] | – | 100% | – | –
C/C(=N\N=C(N)N)c1ccc(C(=O)Nc2ccc(Nc3ccnc4ccc(N(C)C)cc34)cc2)cc1 [Cpd. PP, 4-[(1E)-N-(diaminomethylene)ethanehydrazonoyl]-N-(4-{[6-(dimethylamino)-4-quinolinyl]amino}phenyl)benzamide dihydrochloride] | 60% | 70% | – | –
Cc1cc(Nc2ccc(C(=O)Nc3ccc(Nc4ccnc5ccc(N(C)C)cc45)cc3)cc2)nc(N)n1 [Cpd. HH, 4-[(2-amino-6-methyl-4-pyrimidinyl)amino]-N-(4-{[6-(dimethylamino)-4-quinolinyl]amino}phenyl)benzamide dihydrochloride] | – | 90% | – | –
C/C(=N\N=C(N)N)c1cccc(NC(=O)c2ccc(Nc3ccnc4ccc(N(C)C)cc34)cc2)c1 [Cpd. JJ1, (E)-N-[3-(1-{(diaminomethylene)hydrazono}ethyl)phenyl]-4-[6-(dimethylamino)quinolin-4-ylamino]benzamide dihydrochloride] | 75% | 70% | – | –
C/C(=N\N=C(N)N)c1ccc(NC(=O)c2ccc(Nc3ccnc4ccc(N(C)C)cc34)cc2)cc1 [Cpd. NN, (E)-N-(4-(1-((Diaminomethylene)hydrazono)ethyl)phenyl)-4-(6-(dimethylamino)quinolin-4-ylamino)benzamide Dihydrochloride] | 70% | 70% | – | –
Cl.Cl.O=C(Nc1ccc(Nc2ccncc2)cc1)c1ccc(Nc2ccnc3ccccc23)cc1 [Cpd. EEE2, n-[4-(pyridin-4-ylamino)phenyl]-4-(quinolin-4-ylamino)benzamide dihydrochloride] | – | – | – | % DNMT1 Level ([1]; 5 μM): 3%; % DNMT1 Level ([1]; 10 μM): 0%
